Source: US20260234124A1, “Substituted Pyrazolyl-Pyridinyl Compounds as Ligand Directed Degraders of IRAK3” (Celgene Corporation, priority 2022, published 2026)

Target: T1, IRAK3 (Homo sapiens, UniProt Q9Y616)
T1 sequence (Q9Y616 1-596): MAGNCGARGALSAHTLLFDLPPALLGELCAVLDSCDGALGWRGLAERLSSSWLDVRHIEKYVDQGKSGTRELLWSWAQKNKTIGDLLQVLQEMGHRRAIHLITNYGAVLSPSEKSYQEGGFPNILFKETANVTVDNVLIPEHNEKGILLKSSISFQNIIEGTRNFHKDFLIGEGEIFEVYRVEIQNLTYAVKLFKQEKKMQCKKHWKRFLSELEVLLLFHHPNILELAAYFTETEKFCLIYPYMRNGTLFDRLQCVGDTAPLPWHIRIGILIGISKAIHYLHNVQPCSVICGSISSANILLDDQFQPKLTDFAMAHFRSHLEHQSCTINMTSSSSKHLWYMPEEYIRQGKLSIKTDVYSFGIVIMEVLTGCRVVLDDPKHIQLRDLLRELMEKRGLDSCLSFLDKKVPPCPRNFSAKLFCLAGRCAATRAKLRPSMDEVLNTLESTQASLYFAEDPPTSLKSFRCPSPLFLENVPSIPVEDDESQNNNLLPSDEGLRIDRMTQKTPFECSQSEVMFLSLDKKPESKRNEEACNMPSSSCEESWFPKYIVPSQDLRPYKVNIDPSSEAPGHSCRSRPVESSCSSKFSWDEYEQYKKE
Test: IRAK3 biochemical binding assay (LanthaScreen Eu Kinase Binding, TR-FRET)
Details: 10 nM tracer, 10 nM IRAK3, 1 hour at room temperature
Description: Example B3. IRAK3 Biochemical Binding Assay
The LanthaScreen® Eu Kinase Binding assay was performed as described by the vendor (ThermoFisher Scientific Waltham, MA). Briefly, 100× solutions of compound were prepared in DMSO via serial dilution of the 10 mM stock solution in a 384-well reagent plate using 3-fold intervals to achieve final concentrations. 1 μL of the compound dilution series were added to the corresponding wells of a 384-well reagent plate containing 32.3 μL of 1× buffer (50 mM HEPES pH 7.4, […], 1 mM EGTA, 0.01% Brij-35). 5 μL of the buffer diluted compounds were transferred to the corresponding wells of a 384-well assay plate. 5 μL of 3× tracer was transferred to each well of the assay plate for a final tracer concentration of 10 nM. Finally, 5 μL of the 3× Eu-Anti-GST and IRAK3 mix was transferred to each well for a final concentration of 2 nM and 10 nM, respectively. Reactions were allowed to incubate for 1 hour at room temperature. TR-FRET signal of the interaction ([…]/λem 665/λem 615) was read at room temperature with a delay time of 100 μs and an integration time of 200 μs using an Envision plate reader. Background corrected emission signal ratios at each compound concentration were used to calculate percentage of inhibition (% o Inhibition). Plots of % Inhibition versus inhibitor concentrations were fit according to a dose-response equation (Eq. 1) to generate IC50 and Hill slope values using Dotmatics software (Dotmatics, Bishops Storford, Hertfordshire, England).
Using these assays, IC50, Dmax, EC50, and DC50 values of the following compounds were determined. Dmax is defined as the maximum percent degradation achieved and DC50 is the concentration at which 50% degradation is achieved.

Structure (SMILES) | IC50 [nM]
Cc1ncsc1-c1ccc(CNC(=O)[C@@H]2C[C@@H](O)CN2C(=O)[C@@H](NC(=O)COCCOCCN2CCC(n3cc(-c4cnc(N)c(O[C@H](C)c5c(Cl)ccc(F)c5Cl)c4)cn3)CC2)C(C)(C)C)cc1 [Compound 2, (2S,4R)-1-((S)-2-(2-(2-(2-(4-(4-(6-amino-5-((R)-1-(2,6-dichloro-3-fluorophenyl)ethoxy)pyridin-3-yl)-1H-pyrazol-1-yl)piperidin-1-yl)ethoxy)ethoxy)acetamido)-3,3-dimethylbutanoyl)-4-hydroxy-N-(4-(4-methylthiazol-5-yl)benzyl)pyrrolidine-2-carboxamide] | 139
Cc1ncsc1-c1ccc(CNC(=O)[C@@H]2C[C@@H](O)CN2C(=O)[C@@H](NC(=O)COCCOCCOCCOCCOCCOCCN2CCC(n3cc(-c4cnc(N)c(O[C@H](C)c5c(Cl)ccc(F)c5Cl)c4)cn3)CC2)C(C)(C)C)cc1 [Compound 6, (2S,4R)-1-((S)-23-(4-(4-(6-amino-5-((R)-1-(2,6-dichloro-3-fluorophenyl)ethoxy)pyridin-3-yl)-1H-pyrazol-1-yl)piperidin-1-yl)-2-(tert-butyl)-4-oxo-6,9,12,15,18,21-hexaoxa-3-azatricosanoyl)-4-hydroxy-N-(4-(4-methylthiazol-5-yl)benzyl)pyrrolidine-2-carboxamide] | 108
Cc1ncsc1-c1ccc(CNC(=O)[C@@H]2C[C@@H](O)CN2C(=O)[C@@H](NC(=O)COCCOCCOCCOCCOCCOCCOCCN2CCC(n3cc(-c4cnc(N)c(O[C@H](C)c5c(Cl)ccc(F)c5Cl)c4)cn3)CC2)C(C)(C)C)cc1 [Compound 7, (2S,4R)-1-((S)-26-(4-(4-(6-amino-5-((R)-1-(2,6-dichloro-3-fluorophenyl)ethoxy)pyridin-3-yl)-1H-pyrazol-1-yl)piperidin-1-yl)-2-(tert-butyl)-4-oxo-6,9,12,15,18,21,24-heptaoxa-3-azahexacosanoyl)-4-hydroxy-N-(4-(4-methylthiazol-5-yl)benzyl)pyrrolidine-2-carboxamide] | 331
C[C@@H](Oc1cc(-c2cnn(C3CCN(CCOCCOCCNC(=O)COc4cccc5c4C(=O)N(C4CCC(=O)NC4=O)C5=O)CC3)c2)cnc1N)c1c(Cl)ccc(F)c1Cl (stereo partly drawn) [Compound 10, N-(2-(2-(2-(4-(4-(6-amino-5-((R)-1-(2,6-dichloro-3-fluorophenyl)ethoxy)pyridin-3-yl)-1H-pyrazol-1-yl)piperidin-1-yl)ethoxy)ethoxy)ethyl)-2-((2-(2,6-dioxopiperidin-3-yl)-1,3-dioxoisoindolin-4-yl)oxy)acetamide] | 27
Cc1ncsc1-c1ccc(CNC(=O)[C@@H]2C[C@@H](O)CN2C(=O)[C@@H](NC(=O)COCCOCCOCCOCCN2CCC(n3cc(-c4cnc(N)c(O[C@H](C)c5c(Cl)ccc(F)c5Cl)c4)cn3)CC2)C(C)(C)C)cc1 [Compound 4, (2S,4R)-1-((S)-17-(4-(4-(6-amino-5-((R)-1-(2,6-dichloro-3-fluorophenyl)ethoxy)pyridin-3-yl)-1H-pyrazol-1-yl)piperidin-1-yl)-2-(tert-butyl)-4-oxo-6,9,12,15-tetraoxa-3-azaheptadecanoyl)-4-hydroxy-N-(4-(4-methylthiazol-5-yl)benzyl)pyrrolidine-2-carboxamide] | 120
C[C@@H](Oc1cc(-c2cnn(C3CCN(CCNC(=O)COc4ccc5c(c4)C(=O)N(C4CCC(=O)NC4=O)C5=O)CC3)c2)cnc1N)c1c(Cl)ccc(F)c1Cl (stereo partly drawn) [Compound 13, N-(2-(4-(4-(6-amino-5-((R)-1-(2,6-dichloro-3-fluorophenyl)ethoxy)pyridin-3-yl)-1H-pyrazol-1-yl)piperidin-1-yl)ethyl)-2-((2-(2,6-dioxopiperidin-3-yl)-1,3-dioxoisoindolin-5-yl)oxy)acetamide] | 16
